Drawing on paper PMC11551755, “Structure-based discovery of first inhibitors targeting the helicase activity of human PIF1” (Nucleic Acids Research, 2024), this text covers IC50 for five molecules.

This test concerns the target T1, hPIF1HD (Homo sapiens, UniProt Q9H611).
T1 construct: the hPIF1HD construct starts at residue Gln 206 and ends at Leu 620; hexa-histidine tag (N, cleaved yes); made in house; host or cells: ArcticExpress BL21(DE3) E. coli (Agilent Technologies)
T1 sequence (Q9H611 206-620): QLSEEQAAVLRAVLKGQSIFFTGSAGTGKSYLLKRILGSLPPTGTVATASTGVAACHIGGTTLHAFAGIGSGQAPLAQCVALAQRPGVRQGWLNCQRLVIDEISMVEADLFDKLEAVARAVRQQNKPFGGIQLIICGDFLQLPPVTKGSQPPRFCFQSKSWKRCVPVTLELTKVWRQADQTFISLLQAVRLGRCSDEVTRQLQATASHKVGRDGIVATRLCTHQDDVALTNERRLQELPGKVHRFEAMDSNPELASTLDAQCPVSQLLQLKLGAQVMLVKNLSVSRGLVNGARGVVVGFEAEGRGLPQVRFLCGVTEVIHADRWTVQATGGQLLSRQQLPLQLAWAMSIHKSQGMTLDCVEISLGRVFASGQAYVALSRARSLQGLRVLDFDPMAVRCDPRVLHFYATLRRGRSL
Briefly: ssDNA d(T)55 binding assay (EMSA), wild-type hPIF1HD. Particulars: 5 mM AMP-PNP, read-out: IC50 for inhibition of hPIF1HD ssDNA binding, WT. As for the experimental part: DNA binding of hPIF1HD was assayed using a ^32P-5′ end-labelled oligo d(T)55 substrate (0.25 nM), under the same buffer conditions described for helicase assays, but with AMP-PNP instead of ATP. Reaction products were resolved on 5% poly-acrylamide gels (29:1 acrylamide:bis-acrylamide) using 0.25× TBE running buffer ([19],[28]). Gels were processed and reaction products quantified by phosphorimaging and IC50 values determined as described above.
In the hPIF1HD/AMP-PNP/1 structure, the compound 1 binding site is largely between domains 2A and 2B and is absent in the modelled hPIF1HD-ssDNA complex (Figure 2), due to the large relative movement of domain 2B required for ssDNA binding, with or without bound nucleotide ([19],[34],[35],[47]). […] To test this, we assayed binding to a radiolabelled oligo d(T)55 substrate under helicase reaction conditions, with AMP-PNP instead of ATP, in the presence of the same SMIs selected for helicase IC50 analysis (Table 1). hPIF1HD was used rather than FLhPIF1 to eliminate the non-specific DNA binding activity of the N-terminal domain ([27],[29]), and complexes were resolved by gel electrophoresis (electrophoretic mobility shift assay, EMSA). […] With an increasing concentration of compound 1C (or other analogues of 1) or a derivative, progressive inhibition of ssDNA binding was observed, allowing determination of IC50 values for most compounds tested. It was not possible to obtain data for compounds 3, 7, 8 and 9 due to retention of substrate in the gel wells, possibly due to low solubility of the compounds (Supplementary Figure S10).
Figure 4. Inhibition of hPIF1HD ssDNA binding by compound 1 and derivatives. Binding reactions were assembled under helicase reaction conditions but with 0.25 nM radiolabelled oligo d(T)55, 2 nM hPIF1HD, 5 mM AMP-PNP and 0.0078–2 mM SMI. Products were resolved by EMSA for quantification and IC50 determination (n = 3 repeats). Bound ssDNA was calculated as the sum of the major and minor species, interpreted as one or two bound hPIF1HD molecules respectively. See also Supplementary Figure S10. IC50 values are given along with those determined for hPIF1HD variants V258A and V258L (see Supplementary Figure S12). TEXT PRINTED IN THE PICTURE: 1C: IC50 (μM): N.D. | 1E: IC50 (μM): N.D. | 2: IC50 (μM): WT: 224 ± 86; IC50 (μM): V258A: 103 ± 31; IC50 (μM): V258L: 304 ± 88 | 4: IC50 (μM): N.D. | 5: IC50 (μM): WT: 198 ± 54; IC50 (μM): V258A: 79.2 ± 27; IC50 (μM): V258L: 414 ± 45 | 6: IC50 (μM): WT: 722 ± 194; IC50 (μM): V258A: 295 ± 116; IC50 (μM): V258L: 1010 ± 282 | 10: IC50 (μM): WT: 224 ± 59; IC50 (μM): V258A: 152 ± 42; IC50 (μM): V258L: 378 ± 99 | 11: IC50 (μM): WT: 284 ± 110; IC50 (μM): V258A: 151 ± 51; IC50 (μM): V258L: 551 ± 215

Where [1] appears, read: 0.25 nM d(T)55, 2 nM hPIF1HD, 0.0078–2 mM SMI, n = 3.

The structures appear in SMILES notation. Where two headings read alike, the source gives them in different places.

In the case of `CC(=O)c1ccc(-c2csc(N)n2)cc1` [Compound 2], for the setting “as printed in Supplementary Figure 12 legend, 2 nM hPIF1HD”, the IC50 is 224 ± 86 µM.

Regarding `N#Cc1ccc(-c2csc(N)n2)cc1` [Compound 5], the 50% inhibitory concentration (IC50) under setting [1] was found to be 198 ± 54 µM.

Take `Nc1nc(-c2ccc(C(=O)c3ccccc3)cc2)cs1` [Compound 6]: the IC50 under setting [1] amounted to 722 ± 194 µM.

On to `CC(=O)Nc1ccc(-c2csc(N)n2)cc1-c1ccc(C)cc1` [Compound 10], for which the IC50 under setting [1] is 224 ± 59 µM.

For `CC(=O)Nc1ccc(-c2csc(N)n2)cc1C1=CCNCC1` [Compound 11], the IC50 under setting [1] amounted to 284 ± 110 µM.
